Key:
Male C57BL6/j mice = test: Amphetamine-induced locomotor activity in mice (amphetamine model of schizophrenia); type: in vivo; details: 30 mg/kg ip, 30 minutes before amphetamine sulphate 3.0 mg/kg s.c., distance traveled measured for 60 minutes, p<0.01 vs vehicle-amphetamine
Description: Amphetamine-induced increases in locomotor ambulation are well known and are widely used as a model of the positive symptoms of schizophrenia. This model is based on evidence that amphetamine increases motor behaviors and can induce a psychotic state in humans (Yui et al. (2000) Ann NY Acad Sci 914:1-12). Further, it is well known that amphetamine-induced increases in locomotor activity are blocked by antipsychotics drugs that are effective in the treatment of schizophrenia (Ant (1995) Eur J Pharmacol 283:55-62). […]
Assessment of locomotor (ambulatory) activity: The effects of compounds on amphetamine-induced locomotor activation in mice were tested. […] Locomotor activity (ambulations) was monitored by a videotracking system (VideoTrack, Viewpoint, Champagne au Mont d'Or, France) that recorded the ambulatory movements of mice. […] Mice were placed into the locomotor boxes immediately after the amphetamine injection and their locomotor activity, defined as the distance traveled in centimeters (cm), was measured for 60 minutes. […]
Statistical analyses: Statistical analyses were performed using GraphPad PRISM statistical software (GraphPad, San Diego, Calif., USA). Data were analyzed using an unpaired t-test. […]

SMILES	melting point [°C]	increase in locomotor activity induced by amphetamine (Male C57BL6/j mice; listed as #1)	increase in locomotor activity induced by amphetamine (Male C57BL6/j mice; listed as example 1)
O=C(c1ccc(F)nc1)N1CCC[C@H](n2nnc(-c3ccc(F)cc3)n2)C1 [Example 21, {(S)-3-[5-(4-Fluoro-phenyl)-tetrazol-2-yl]-piperidin-1-yl}-(6-fluoro-pyridin-3-yl)-methanone]	109 to 110	–	–
O=C(c1ccc(F)cc1F)N1CCC[C@H](n2nnc(-c3ccc(F)cc3)n2)C1 [Example 25, (2,4-Difluoro-phenyl)-{(S)-3-[5-(4-fluoro-phenyl)-tetrazol-2-yl]-piperidin-1-yl}-methanone]	65 to 68	–	–
O=C(c1ccc(F)cc1)N1CCC[C@H](n2nnc(-c3ccc(F)cc3)n2)C1 [Example 1, (4-Fluoro-phenyl)-{(S)-3-[5-(4-fluoro-phenyl)-tetrazol-2-yl]-piperidin-1-yl}-methanone]	109 to 110	significantly attenuate	significantly attenuated

Continued, in another order:

melting point [°C]	SMILES	increase in locomotor activity induced by amphetamine (Male C57BL6/j mice; listed as #1)	increase in locomotor activity induced by amphetamine (Male C57BL6/j mice; listed as example 1)
123 to 128	O=C(c1ccc(F)c(F)c1)N1CCC[C@H](n2nnc(-c3ccc(F)cc3)n2)C1 [Example 24, (3,4-Difluoro-phenyl)-{(S)-3-[5-(4-fluoro-phenyl)-tetrazol-2-yl]-piperidin-1-yl}-methanone]	–	–
137 to 139	O=C(c1ccc(F)cc1)N1CCCC(n2nnc(-c3ccc(F)cc3)n2)C1 (stereo not shown) [Example 2, (4-Fluoro-phenyl)-{3-[5-(4-fluoro-phenyl)-tetrazol-2-yl]-piperidin-1-yl}-methanone]	–	–
